Bounds are passed on as bounds.

For orientation: AC50 means the concentration at which the activity in the assay is half-maximal.

For the test, the target named is T1, human PAH with the R408W mutation (Homo sapiens, UniProt P00439, R408W).
T1 construct: expressed in transfected cells
T1 sequence (P00439 1-452 R408W): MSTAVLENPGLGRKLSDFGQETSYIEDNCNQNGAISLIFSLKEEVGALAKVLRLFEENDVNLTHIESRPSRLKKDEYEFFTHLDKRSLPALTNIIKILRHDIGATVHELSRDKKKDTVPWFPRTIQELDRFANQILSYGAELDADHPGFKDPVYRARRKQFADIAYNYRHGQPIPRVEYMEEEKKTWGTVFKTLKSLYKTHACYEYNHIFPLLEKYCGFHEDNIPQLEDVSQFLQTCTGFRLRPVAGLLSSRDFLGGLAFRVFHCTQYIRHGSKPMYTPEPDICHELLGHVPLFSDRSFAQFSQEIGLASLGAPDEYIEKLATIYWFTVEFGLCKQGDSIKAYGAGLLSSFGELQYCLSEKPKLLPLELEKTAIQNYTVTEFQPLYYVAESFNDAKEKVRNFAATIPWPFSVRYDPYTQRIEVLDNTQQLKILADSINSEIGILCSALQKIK
Description: Cell Based Phenylalanine Flux Assay.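 Note: Ten-point dose curve from 2-fold serial dilutions, run in duplicate at 0.5% DMSO final, tracer step used 20 µM sepiapterin and 800 µM labeled phenylalanine.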 As to conditions: A375 cells expressing human R408W PAH; 24 hrs compound incubation; 13C-Tyrosine by LC-MS; average where tested multiple times; read-out: AC50.
As to `Cc1cc(F)ccc1-c1nnc(C(=O)N2CCc3[nH]cnc3[C@@H]2c2cc3ccccn3n2)o1` [Example 655, (R)-(5-(4-fluoro-2-methylphenyl)-1,3,4-oxadiazol-2-yl)(4-(pyrazolo [1,5-a]pyridin-2-yl)-6,7-dihydro-1H-imidazo[4,5-c]pyridin-5(4H)-yl)methanone], the AC50 fell in the range of 1 to 5 µM.
The same measure for `Cn1ccc(-c2nnc(C(=O)N3CCc4[nH]cnc4[C@H]3c3cc4ccccn4n3)o2)n1` [Example 658, (S)-(5-(1-methyl-1H-pyrazol-3-yl)-1,3,4-oxadiazol-2-yl)(4-(pyrazolo[1,5-a]pyridin-2-yl)-6,7-dihydro-1H-imidazo[4,5-c]pyridin-5(4H)-yl)methanone]: 1 to 5 µM.
The same measure for `Cn1nc(Cl)cc1C(=O)N1CCc2[nH]cnc2[C@@H]1c1cc2ccccn2n1` [Example 681, (R)-(3-chloro-1-methyl-1H-pyrazol-5-yl)(4-(pyrazolo [1,5-a]pyridin-2-yl)-6,7-dihydro-1H-imidazo[4,5-c]pyridin-5(4H)-yl)methanone]: greater than 5 µM.
The same measure for `N#Cc1ncoc1C(=O)N1CCc2[nH]cnc2[C@@H]1c1cc2ccc(Cl)cn2n1` [Example 685, (R)-5-(4-(6-chloropyrazolo [1,5-a]pyridin-2-yl)-4,5,6,7-tetrahydro-1H-imidazo[4,5-c]pyridine-5-carbonyl) oxazole-4-carbonitrile]: greater than 5 µM; for `C[C@@H](O)c1nc(C(F)F)c(C(=O)N2CCc3[nH]cnc3[C@@H]2c2cc3ccccn3n2)o1` [Example 691, (4-(difluoromethyl)-2-((R)-1-hydroxyethyl)oxazol-5-yl)((R)-4-(pyrazolo[1,5-a]pyridin-2-yl)-6,7-dihydro-1H-imidazo[4,5-c]pyridin-5(4H)-yl)methanone]: greater than 5 µM.
For `CC(C)(C#N)c1nc(C(F)F)c(C(=O)N2CCc3[nH]cnc3[C@@H]2c2cc3ccccn3n2)o1` [Example 698, (R)-2-(4-(difluoromethyl)-5-(4-(pyrazolo[1,5-a]pyridin-2-yl)-4,5,6,7-tetrahydro-1H-imidazo[4,5-c]pyridine-5-carbonyl)oxazol-2-yl)-2-methylpropanenitrile], the AC50 lay in the range of 1 to 5 µM.
On to `C[C@@H](O)c1nc(C(F)F)c(C(=O)N2CCc3[nH]cnc3[C@@H]2c2cc3c(Cl)cccn3n2)o1` [Example 703, ((R)-4-(4-chloropyrazolo [1,5-a]pyridin-2-yl)-6,7-dihydro-1H-imidazo[4,5-c]pyridin-5(4H)-yl)(4-(difluoromethyl)-2-((R)-1-hydroxyethyl)oxazol-5-yl)methanone], for which the AC50 is 1 to 5 µM.
On to `O=C(c1oc(C2(O)CC2)nc1C(F)F)N1CCc2[nH]cnc2[C@@H]1c1cc2c(Cl)cccn2n1` [Example 705, (R)-(4-(4-chloropyrazolo [1,5-a]pyridin-2-yl)-6,7-dihydro-1H-imidazo[4,5-c]pyridin-5(4H)-yl)(4-(difluoromethyl)-2-(1-hydroxycyclopropyl)oxazol-5-yl)methanone], for which the AC50 fell in the range of 1 to 5 µM.
`C[C@@H](O)c1nc(C(F)F)c(C(=O)N2CCc3[nH]cnc3[C@@H]2c2cc3c(F)cccn3n2)o1` [Example 711, (4-(difluoromethyl)-2-((R)-1-hydroxyethyl)oxazol-5-yl)((R)-4-(4-fluoropyrazolo [1,5-a]pyridin-2-yl)-6,7-dihydro-1H-imidazo[4,5-c]pyridin-5(4H)-yl)methanone]: the AC50 is greater than 5 µM.
For the compound `C[C@H](O)c1nc(C(F)F)c(C(=O)N2CCc3[nH]cnc3[C@H]2c2cc3c(F)cccn3n2)o1` [Example 712, (4-(difluoromethyl)-2-((S)-1-hydroxyethyl)oxazol-5-yl)((S)-4-(4-fluoropyrazolo [1,5-a]pyridin-2-yl)-6,7-dihydro-1H-imidazo[4,5-c]pyridin-5(4H)-yl)methanone], the AC50 was less than 0.5 µM.
Then `C[C@H](O)c1nc(C(F)F)c(C(=O)N2CCc3[nH]cnc3[C@@H]2c2cc3c(F)cccn3n2)o1` [Example 713, (4-(difluoromethyl)-2-((S)-1-hydroxyethyl)oxazol-5-yl)((R)-4-(4-fluoropyrazolo [1,5-a]pyridin-2-yl)-6,7-dihydro-1H-imidazo[4,5-c]pyridin-5(4H)-yl)methanone], with greater than 5 µM; and `Cn1cc(-c2nnc(C(=O)N3CCc4[nH]cnc4[C@@H]3c3cc4c(F)cccn4n3)o2)cn1` [Example 729, (R)-(4-(4-fluoropyrazolo[1,5-a]pyridin-2-yl)-6,7-dihydro-1H-imidazo[4,5-c]pyridin-5(4H)-yl)(5-(1-methyl-1H-pyrazol-4-yl)-1,3,4-oxadiazol-2-yl)methanone], with greater than 5 µM; and `Cn1ccc(-c2nnc(C(=O)N3CCc4[nH]cnc4[C@H]3c3cc4c(F)cccn4n3)o2)n1` [Example 730, (S)-(4-(4-fluoropyrazolo [1,5-a]pyridin-2-yl)-6,7-dihydro-1H-imidazo[4,5-c]pyridin-5(4H)-yl)(5-(1-methyl-1H-pyrazol-3-yl)-1,3,4-oxadiazol-2-yl)methanone], with less than 0.5 µM.
Take `O=C(c1nnc(-c2ccccn2)o1)N1CCc2[nH]cnc2[C@@H]1c1cc2c(F)cccn2n1` [Example 732, (R)-(4-(4-fluoropyrazolo [1,5-a]pyridin-2-yl)-6,7-dihydro-1H-imidazo[4,5-c]pyridin-5(4H)-yl)(5-(pyridin-2-yl)-1,3,4-oxadiazol-2-yl)methanone]: the AC50 was greater than 5 µM.
For `Cc1cccn2nc([C@H]3c4nc[nH]c4CCN3C(=O)c3nnc(-c4ccn(C)n4)o3)cc12` [Example 742, (R)-(5-(1-methyl-1H-pyrazol-3-yl)-1,3,4-oxadiazol-2-yl)(4-(4-methylpyrazolo[1,5-a]pyridin-2-yl)-6,7-dihydro-1H-imidazo [4,5-c]pyridin-5(4H)-yl)methanone], the AC50 is greater than 5 µM.
Then `CC(C)(O)c1nc(C(F)(F)F)c(C(=O)N2CCc3[nH]cnc3[C@H]2c2cc3c(F)cccn3n2)o1` [Example 744, (S)-(4-(4-fluoropyrazolo[1,5-a]pyridin-2-yl)-6,7-dihydro-1H-imidazo[4,5-c]pyridin-5(4H)-yl)(2-(2-hydroxypropan-2-yl)-4-(trifluoromethyl)oxazol-5-yl)methanone], with less than 0.5 µM.
In the case of `Cc1nc([C@H](C)O)oc1C(=O)N1CCc2[nH]cnc2[C@@H]1c1cc2c(C)cccn2n1` [Example 751, (2-((S)-1-hydroxyethyl)-4-methyloxazol-5-yl)((R)-4-(4-methylpyrazolo[1,5-a]pyridin-2-yl)-6,7-dihydro-1H-imidazo [4,5-c]pyridin-5(4H)-yl) methanone], the AC50 is greater than 5 µM.
Then `Cc1nc(C(C)(C)O)oc1C(=O)N1CCc2[nH]cnc2[C@@H]1c1cc2c(C)cccn2n1` [Example 755, (R)-(2-(2-hydroxypropan-2-yl)-4-methyloxazol-5-yl)(4-(4-methylpyrazolo[1,5-a]pyridin-2-yl)-6,7-dihydro-1H-imidazo[4,5-c]pyridin-5(4H)-yl)methanone], with greater than 5 µM; and `Cc1cccn2nc([C@H]3c4nc[nH]c4CCN3C(=O)c3cnco3)cc12` [Example 769, (R)-(4-(4-methylpyrazolo [1,5-a]pyridin-2-yl)-6,7-dihydro-1H-imidazo[4,5-c]pyridin-5(4H)-yl)(oxazol-5-yl)methanone], with greater than 5 µM; and `COc1cccn2nc([C@H]3c4nc[nH]c4CCN3C(=O)c3nnc(-c4ccccn4)o3)cc12` [Example 778, (R)-(4-(4-methoxypyrazolo [1,5-a]pyridin-2-yl)-6,7-dihydro-1H-imidazo[4,5-c]pyridin-5(4H)-yl)(5-(pyridin-2-yl)-1,3,4-oxadiazol-2-yl)methanone], with greater than 5 µM.
For `O=C(c1ccnn1C(F)F)N1CCc2[nH]cnc2[C@@H]1c1cc2c(Cl)cccn2n1` [Example 783, (R)-(4-(4-chloropyrazolo [1,5-a]pyridin-2-yl)-6,7-dihydro-1H-imidazo [4,5-c]pyridin-5(4H)-yl)(1-(difluoromethyl)-1H-pyrazol-5-yl)methanone], the AC50 fell in the range of 1 to 5 µM.
Regarding `Cc1c([C@H]2c3nc[nH]c3CCN2C(=O)c2oc(C(C)(C)O)nc2C(F)F)nn2ccccc12` [Example 787, (R)-(4-(difluoromethyl)-2-(2-hydroxypropan-2-yl)oxazol-5-yl)(4-(3-methylpyrazolo[1,5-a]pyridin-2-yl)-6,7-dihydro-1H-imidazo [4,5-c]pyridin-5(4H)-yl)methanone], the AC50 lay in the range of 1 to 5 µM.
As to `COc1ccc(-c2nnc(C(=O)N3CCc4[nH]cnc4[C@H]3c3cc4c(F)cccn4n3)o2)nc1` [Example 788, (S)-(4-(4-fluoropyrazolo[1,5-a]pyridin-2-yl)-6,7-dihydro-1H-imidazo[4,5-c]pyridin-5(4H)-yl)(5-(5-methoxypyridin-2-yl)-1,3,4-oxadiazol-2-yl)methanone], the AC50 was less than 0.5 µM.
Take `O=C(c1nnc(-c2ncccc2F)o1)N1CCc2[nH]cnc2[C@H]1c1cc2c(F)cccn2n1` [Example 791, (S)-(4-(4-fluoropyrazolo[1,5-a]pyridin-2-yl)-6,7-dihydro-1H-imidazo[4,5-c]pyridin-5(4H)-yl)(5-(3-fluoropyridin-2-yl)-1,3,4-oxadiazol-2-yl) methanone]: the concentration at half-maximal activity (AC50) was less than 0.5 µM.
Turning to `O=C(c1nnc(-c2cnn(C(F)F)c2)o1)N1CCc2[nH]cnc2[C@@H]1c1cc2c(F)cccn2n1` [Example 797, (R)-(5-(1-(difluoromethyl)-1H-pyrazol-4-yl)-1,3,4-oxadiazol-2-yl)(4-(4-fluoropyrazolo[1,5-a]pyridin-2-yl)-6,7-dihydro-1H-imidazo[4,5-c]pyridin-5(4H)-yl)methanone], the AC50 is greater than 5 µM.

The values are drawn from patent publication US12673961B2 (Agios Pharmaceuticals, Inc., priority 2022, dated 2026).
